Measured values: patent US6784153B1, “Methods of homing molecules to lung using membrane dipeptidase” (The Burnham Institute, priority 1998, dated 2004)

Tests used:
MDP [1] = target: T1, MDP (Mus musculus, UniProt P31428); assay: inhibition of MDP activity (hydrolysis of Gly-D-Phe, fluorimetric); format: biochemical, murine; conditions: Gly-D-Phe 0.5 mM; extracts from MDP-expressing COS-1 cells
T1 construct: The amplified 1.3 kb murine MDP cDNA was digested with KpnI and XbaI, and inserted into the same sites of the pcDNA3 expression vector; expressed in transfected cells; host or cells: COS-1 cells, pcDNA3 expression vector
T1 sequence (P31428 17-384): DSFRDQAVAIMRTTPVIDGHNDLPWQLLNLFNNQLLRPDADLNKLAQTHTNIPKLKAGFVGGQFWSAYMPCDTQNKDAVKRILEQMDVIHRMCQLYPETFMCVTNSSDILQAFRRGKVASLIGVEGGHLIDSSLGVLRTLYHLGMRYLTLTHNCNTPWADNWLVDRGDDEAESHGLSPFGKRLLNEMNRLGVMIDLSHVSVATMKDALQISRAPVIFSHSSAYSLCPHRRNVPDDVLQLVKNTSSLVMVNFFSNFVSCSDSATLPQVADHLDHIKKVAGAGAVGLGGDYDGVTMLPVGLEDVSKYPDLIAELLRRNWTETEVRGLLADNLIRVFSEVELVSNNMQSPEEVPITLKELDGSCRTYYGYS
Method: […] […] Fluorescence was measured using an fmax fluorescence microplate reader from Molecular Devices (Sunnyvale, Calif.).
(§1) Phage binding to COS-1 cells transfected with MDP was determined as follows. Briefly, 10^7 COS-1 cells were transfected with 10 μg of either the MDP expression vector or the vector alone. After 48 hours, cells were scraped gently from the dish, washed once, and subjected to the phage binding assay or membrane dipeptidase activity assay described above. For the phage binding assay, 5×10^6 cells and 10^10 transducing units (TU) of phage input were used. For measurement of membrane dipeptidase activity, 10^6 cells were lysed in 100 μl of PBS/octylglycoside without protease inhibitors. A 10 μl aliquot of the extract was used to measure MDP activity.
Fluorimetric detection of D-Phe was performed as described above.

[2] = test system: C8161 human melanoma cells
[3] = target: T2, 55 kDa lung vascular surface protein (Mus musculus, UniProt P31428); assay: peptide affinity chromatography of in vivo biotinylated lung extract; format: binding; conditions: elution with GFE-1 peptide
T2 construct: from tissue; host or cells: Balb/c mouse lung, in vivo biotinylated, octylglucoside extract
T2 sequence (P31428 17-384): T1 sequence (P31428 17-384)
Method: In vivo biotinylation of endothelial cell surface proteins was performed as previously described in De La Fuente et al., Am. J. Physiol. […] Briefly, Balb/c mice were anesthetized with Avertin and perfused slowly through the heart for 10 to 15 minutes with approximately 15 ml of PBS containing 0.5 mg/ml of sulfo-NHS-LC-biotin (Pierce; Rockford, Ill.). Well perfused lungs or control tissues such as brain were then collected and incubated on ice for 20 minutes. The tissues were then homogenized for preparation of extracts as described further below.
For preparation of extracts, mouse or rat lungs were first minced and then homogenized with a Brinkman homogenizer (Brinkman; Wesbury, N.Y.) in a minimal volume (2.5 ml/g of tissue) of cold PBS containing 100 mM N-octyl-β-D-glucopyranoside (Calbiochem; La Jolla, Calif.) with 1 mM phenylmethylsulfonyl fluoride (PMSF), 20 μg/ml aprotinin and 1 μg/ml leupeptin (PBS/octylglucoside). The homogenized tissue was incubated on ice for 2 hours, and then centrifuged at 12,000×g for 30 minutes to remove cell debris. The pooled supernatants were cleared of any debris prior to affinity chromatogaphy.
All steps were performed at 4° C. […] The matrix contained approximately 2 mg/ml of peptide. […] The extract was applied to the column, and the flow-through re-applied over a period of 90 minutes. The column was then washed with 20 volumes of column buffer. […]

lung primary cells = assay: phage binding assay on lung primary cells; parameters: species or system mice; conditions: 150 μM peptide
Method: Phage binding to primary cells was performed as follows. Briefly, Balb/c mice (Harlan Sprague Dawley) were anesthetized with 0.017 ml/g of Avertin as described in Gardner et al., Lab. […] Under deep anesthesia, mice were perfused through the heart with 10 ml Dulbecco's modified Eagle's medium (DMEM; Irvine Scientific; Santa Ana, Calif.). The lungs, kidneys and brain were then collected, minced, placed in 2 ml of DMEM containing 0.5% BSA (Intergen; Purchase, N.Y.) and 0.5 μg/ml collagenase V (SIGMA) and incubated at 37° C. for 25 minutes. Following collagenase treatment, the tissue was forced through a […] pore cell strainer (Becton Dickinson; Franklin Lake, N.J.). The filtered cells were washed once with 10 ml DMEM supplemented with 10% serum.
For the binding reaction, 10^9 transducing units (TU) of phage were incubated with 5×10^6 cells in 1 ml DMEM supplemented with 10% serum. The binding was performed at 4° C. for 2 hours with gentle agitation. After the binding reaction, the cells were washed four times with 1 ml of DMEM supplemented with 10% serum at room temperature for 5 to 10 minutes each time. The cells were centrifuged, and the cell pellet resuspended in 100 μl of DMEM and transferred to a new tube. […] The bacteria were then diluted in 10 ml of LB culture media supplemented with 0.2 μg/ml tetracycline, and incubated for another 30 minutes at room temperature. Serial dilutions of the bacterial culture were plated on LB plates containing 40 μg/ml tetracycline. Plates were incubated at 37° C. overnight before the colonies were counted (transducing units, TU).

MDP [4] = conditions: cited from earlier work
murine MDP = target: T3, murine MDP (Mus musculus, UniProt P31428); assay: phage binding to COS-1 cells transfected with MDP; conditions: 5×10^6 COS-1 cells, 10^10 TU phage
T3 construct: The amplified 1.3 kb murine MDP cDNA was digested with KpnI and XbaI, and inserted into the same sites of the pcDNA3 expression vector; expressed in transfected cells; host or cells: COS-1 cells, pcDNA3 expression vector
T3 sequence (P31428 17-384): T1 sequence (P31428 17-384)
Method: The COS-1 cell line, which is known to have low or no detectable level of MDP activity, has been used extensively to study MDP structure and function (Keynan et al., supra, 1996; Keynan et al., Biochem, J. 326:47-51 (1997)). COS-1 cells were trasfected with murine MDP and used to assay binding to SEQ ID NOS: 1 and 2 as described below.
For transfection into COS-1 cells, a murine MDP expression vector was prepared as follows. Total mouse lung RNA was isolated using Qiagen RNA purification columns (Qiagen; Santa Clarita, Calif.) and used as a template for first strand cDNA synthesis with reverse transcriptase and a mixture of random hexamers and poly-dT oligonucleotides (GIBCO/BRL; Grand Island, N.Y.). Mouse MDP cDNA (Pasqualini et al., J. Cell Biol. 130:1189-1196 (1995)) was amplified from the cDNA pool by PCR using the oligonucleotide pair: […] (SEQ ID NO: 446), which contains a KpnI adaptor, and […] (SEQ ID NO: 447), which contains an XbaI adaptor, using Taq polymerase from GIBCO/BRL. The amplified 1.3 kb murine MDP cDNA was digested with KpnI and XbaI, and inserted into the same sites of the pcDNA3 expression vector (Invitrogen; Carlsbad, Calif.) using DNA restriction enzymes and T4 DNA ligase from New England Biolabs (Beverly, Mass.). Successful cloning of the murine MDP cDNA was confirmed by DNA sequencing. Transfection of the COS-1 cells was performed with the Superfect Reagent from Qiagen as recommended by the manufacturer.
as §1

skin [5] = assay: immunohistologic analysis of skin homing phage; format: in vivo, mice
Method: Phage displaying homing peptides were detected in lung, pancreas and skin by immunostaining histologic sections obtained 5 min after administration of phage expressing a lung, pancreas or skin homing peptide (“peptide-phage”) to a mouse. Following administration of the peptide-phage, mice were handled as described above and various organs, including lung, pancreas and skin, were removed and fixed in Bouin's solution (SIGMA). Histologic sections were prepared and reacted with anti-M13 (phage) antibodies (Pharmacia Biotech; see U.S. Pat. No. 5,622,699, supra, 1997; Pasqualini and Ruoslahti, supra, 1996). Visualization of the bound anti-M13 antibody was performed using a second antibody conjugated to peroxidase (SIGMA) according to the manufacturer's instructions.
Experiments were performed in skin using phage displaying the skin homing peptide CVALCREACGEGC (SEQ ID NO: 3). In these experiments, histological samples from the skin as well as control organs and tissues including lung and pancreas were prepared and examined by immunostaining as described above.

skin [6] = assay: in vivo homing of phage displaying peptides to skin; parameters: species or system mice
Method: For in vivo panning of skin, two month old BALB/c nude mice were used to avoid contamination by hair. The mice were injected intravenously with phage as described above and, after perfusion through the heart, the skin was removed in large sections and placed on an ice cold plate with the hypodermis facing up. The skin was scraped with a scalpel to remove mostly hypodermis, which was then processed for phage recovery as described below.
Approximately 250 to 300 individual bacterial colonies containing phage recovered from the various organs or tissues were grown for 16 hr in 5 ml NZY/tet. In some experiments, approximately 1000 individual bacteria containing phage were picked and the phage were amplified in 2 ml of NZY/tet or the entire plate containing phage was scraped, pooled and grown in bulk and processed for injection. Where phage were cultured separately, the cultures were pooled and the phage were injected into mice or rats as described above for a second round of in vivo panning. In some experiments, a third or fourth round of panning was performed. Phage DNA was purified from individual bacterial colonies obtained and the DNA sequences encoding the peptides expressed by selected phage were determined (see Koivunen et al., supra, 1994b).
in After two or three rounds of in vivo panning of mice injected with a cyclic CX3CX3CX3C (SEQ ID NO: 25) phage display library, the peptide sequence CVALCREACGEGC (SEQ ID NO: 3), which appeared repeatedly in skin, was identified (Table 1). To determine the specificity of skin homing of the sequence CVALCREACGEGC (SEQ ID NO: 3), phage displaying the peptide was amplified individually, diluted to the same input titer and administered to mice. Following administration, control kidney and brain organ were removed and the number of TU of phage in skin, kidney and brain was determined.
Peptides that were identified more than one time during screening are indicated by an asterisk. For example, 14% of recovered CX3CX3CX3C (SEQ ID NO: 25) phage that homed to head skin had the sequence CVDVCCDGCPVCC (SEQ ID NO: 437). Phage having the sequence RVPLSGDVEH (SEQ ID NO: 438), LRVMSFTSGQ (SEQ ID NO: 439), or RFSVGSLFGS (SEQ ID NO: 440) each constituted 14% of recovered CX10C (SEQ ID NO: 30) phage that homed to head skin.

O=c1[nH]cc(F)c(=O)[nH]1 [CARAC, reference compound]
inhibition of hydrolysis of Gly-D-Phe by MDP (MDP [1]): did not inhibit the enzyme | toxicity to the melanoma cells [2]: Neither the GFE-1 (SEQ ID NO: 1) or CARAC (SEQ ID NO: 443) peptides exhibited toxicity

GRGESP: control peptide [reference compound]
binding of lung surface protein to peptide affinity column [3]: No proteins in the 55 kDa range were detected | inhibition of GFE-1 phage binding to lung cells (lung primary cells): no effect

CCCCC/C=C(\NC(=O)C1CC1(C)C)C(=O)O (racemic) [Z-2-(2,2 dimethylcyclopropanecarboxamido)-2-octenoic acid]
activity of resolved isomers (MDP [4]): Activity resides in the dextrorotatory isomer

CVALCREACGEGC [skin homing peptide]
phage bound to MDP transfected cells than to mock transfected cells (murine MDP): no specific binding | immunostaining of skin (skin [5]; 5 min after phage): staining in blood vessels of the hypodermis | staining of lung and pancreas after skin homing phage (skin [5]; control tissues): no staining was observed in control the lung and pancreas | % OF MOTIF AMONG ALL CLONES (skin [6]; SKIN): 6% | skin/brain phage ratio (skin [6]; SKIN section): 7 | phage bound to skin than to kidney or brain (skin [6]; individually amplified phage): 7 × | enriched in skin over unselected phage (skin [6]; mouse, in vivo): 7 × | selectivity for skin over unselected phage and over background in brain and kidney (skin [6]; mouse, in vivo): 7 fold
